Patent US20160129011A1, “BICYCLO 2,3-BENZODIAZEPINES AND SPIROCYCLICALLY SUBSTITUTED 2,3-BENZODIAZEPINES” (BAYER PHARMA AKTIENGESELLSCHAFT, priority 2013, published 2016)
pIC50: −log10 of the molar value.

Experiments:
MOLP-8 cells = assay: Cell proliferation assay (alamarBlue), MOLP-8; assay type: cell-based; conditions: multiple myeloma cell line, 120 h incubation
Description: (§1) In accordance with the invention, the ability of the substances to inhibit cell proliferation was determined. Cell viability was determined by means of the alamarBlue® reagent (Invitrogen) in a Victor X3 Multilabel Reader (Perkin Elmer). The excitation wavelength was 530 nm and the emission wavelength […].
The MOLP-8 cells (DSMZ, ACC 569) were sown at a concentration of 4000 cells/well in 100 μl of growth medium (RPMI1640, 20% FCS) on 96-well microtitre plates.
(§2) The MDA-MB-231 cells (DSMZ, ACC 732) were sown at a concentration of 4000 cells/well in 100 μl of growth medium (DMEM/Ham's F12 medium, 10% FCS) on 96-well microtitre plates. After overnight incubation at 37° C., the fluorescence values (CI values) were determined. Then the plates were treated with various substance dilutions (1E-5 M, 3E-6 M, 1E-6 M, 3E-7 M, 1E-7 M, 3E-8 M, 1E-8 M) and incubated at 37° C. for 72 (MV4-11, LOX-IMVI cells), 96 (MOLM-13, B16F10, […] cells), 120 (MOLP-8, KMS-12-PE cells) or 168 (LAPC-4 cells) hours. Subsequently, the fluorescence values were determined (CO values). For the data analysis, the CI values were subtracted from the CO values and the results were compared between cells which had been treated with various dilutions of the substance or only with buffer solution. This was used to calculate the IC50 values (substance concentration required for 50% inhibition of cell proliferation).
(§3) The substances were examined in the cell lines of Table 1 which, in an exemplary manner, represent the stated indications: […]

BRD4 (BD1) = target: T1, BRD4 (BD1) (Homo sapiens, UniProt O60885); assay: Binding assay BRD4/acetylated peptide H4 (TR-FRET protein-protein interaction assay); conditions: BRD4 (BD1) / acetylated histone H4 peptide
T1 construct: longer constructs also being possible, preferably amino acids 44-168; made in house; host or cells: E. coli
Summary of the method: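 His6-tagged BRD4 BD1 (aa 67-152, E. coli-expressed, typically 10 nM) was used with a biotinylated tetra-acetylated H4 peptide, and compounds at 0.1 nM–20 μM in duplicate. After 10 min preincubation, mixtures were incubated 1 h at 22 °C, then ≥3 h at 4 °C. Read-out was the TR-FRET 665/622 nm ratio (Eu-streptavidin to anti-His-XL665); IC50 from a 4-parameter fit.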

MOLM-13 cells = assay: Cell proliferation assay (alamarBlue), MOLM-13; assay type: cell-based; conditions: acute myeloid leukaemia cell line, 96 h incubation
Description: as §1
The MOLM-13 cells (DSMZ, ACC 554) were sown at a concentration of 4000 cells/well in 100 μl of growth medium (RPMI1640, 10% FCS) on 96-well microtitre plates.
as §2, §3

B16F10 cells = assay: Cell proliferation assay (alamarBlue), B16F10; assay type: cell-based; conditions: melanoma (BRAF wild-type) cell line, 96 h incubation
Description: as §1
The B16F10 cells (ATCC, CRL-6475) were sown at a concentration of 300-500 cells/well in 100 μl of growth medium (DMEM with phenol red, 10% FCS) on 96-well microtitre plates.
as §2, §3

MV4-11 cells = assay: Cell proliferation assay (alamarBlue), MV4-11; assay type: cell-based; conditions: Homo sapiens, acute myeloid leukaemia cell line, 72 h incubation
Description: as §1
The MV4-11 cells (ATCC, CRL 9591) were sown at a concentration of 5000 cells/well in 100 μl of growth medium (RPMI1640, 10% FCS) on 96-well microtitre plates.
as §2, with “proliferation). […]” for “proliferation).”

MDA-MB-231 cells = assay: Cell proliferation assay (alamarBlue), MDA-MB-231; assay type: cell-based; conditions: Homo sapiens, mammary carcinoma cell line, 96 h incubation
Description: as §1, §2, §3

KMS-12-PE cells = assay: Cell proliferation assay (alamarBlue), KMS-12-PE; assay type: cell-based; conditions: Homo sapiens, multiple myeloma cell line, 120 h incubation
Description: as §1
The KMS-12-PE cells (DSMZ, ACC 606) were sown at a concentration of 4000 cells/well in 100 μl of growth medium (RPMI1640, 20% FCS) on 96-well microtitre plates.
as §2, with “proliferation). […]” for “proliferation).”

LOX-IMVI cells = assay: Cell proliferation assay (alamarBlue), LOX IMVI; assay type: cell-based; conditions: Homo sapiens, melanoma (BRAF mutated) cell line, 72 h incubation
Description: as §1
The LOX-IMVI cells (NCI-60) were sown at a concentration of 1000 cells/well in 100 μl of growth medium (RPMI1640, 10% FCS) on 96-well microtitre plates.
as §2, with “proliferation). […]” for “proliferation).”

LAPC-4 cells = assay: Cell proliferation assay (alamarBlue), LAPC-4; assay type: cell-based; conditions: Homo sapiens, LAPC4; prostate cancer cell line, 1 nM methyltrienolone, 168 h incubation
Description: as §1
The LAPC-4 cells (ATCC, PTA-1441TM) were sown at a concentration of 4000 cells/well in 100 μl of growth medium (RPMI1640, 2 mM L-glutamine, 10% cFCS) on 96-well microtitre plates. One day later, the LAPC-4 cells were treated with 1 nM methyltrienolone and various substance dilutions.
as §2, with “For the data analysis, the CI values were subtracted from the CO values and the results were compared between cells which had been treated with various dilutions of the substance or only with buffer solution. This was used to calculate the IC50 values (substance concentration required for 50% inhibition of cell proliferation).” left out

SMILES	pIC50 (MOLP-8 cells; Homo sapiens, MOLP-8)	pIC50 (BRD4 (BD1))	pIC50 (MOLM-13 cells; Homo sapiens, MOLM-13)	pIC50 (B16F10 cells; Mus musculus, B16-F10)	pIC50 (MOLP-8 cells)	pIC50 (MOLM-13 cells)	pIC50 (B16F10 cells)	pIC50 (MV4-11 cells)	pIC50 (MDA-MB-231 cells)	pIC50 (KMS-12-PE cells)	pIC50 (LOX-IMVI cells)	pIC50 (LAPC-4 cells)
CNC(=O)N1N=C(c2ccc(-c3ccc4c(c3)OCO4)cc2)c2cc(OC)c(OC)cc2CC1C (racemic) [Example 27, (±)-1-[4-(1,3-benzodioxol-5-yl)phenyl]-7,8-dimethoxy-N,4-dimethyl-4,5-dihydro-3H-2,3-benzodiazepine-3-carboxamide]	6.34	6.96	6.32	6.46								
CNC(=O)N1N=C(c2ccc(N3CCC4(COC4)C3)cc2)c2cc(OC)c(OC)cc2CC1C (racemic) [Example 29, (±)-7,8-dimethoxy-N,4-dimethyl-1-[4-(2-oxa-6-azaspiro[3.4]oct-6-yl)phenyl]-4,5-dihydro-3H-2,3-benzodiazepine-3-carboxamide]	7.05	7.30	6.66	7.00								
CNC(=O)N1N=C(c2ccc(N3CCC4OCCC4C3)cc2)c2cc(OC)c(OC)cc2CC1C (racemic) [Example 36, (±)-1-[4-(hexahydrofuro[3,2-c]pyridin-5(4H)-yl)phenyl]-7,8-dimethoxy-N,4-dimethyl-4,5-dihydro-3H-2,3-benzodiazepine-3-carboxamide]	7.05	7.40	6.82	7.15								
CNC(=O)N1N=C(c2ccc(N3CC4(CCC4)C3)cc2)c2cc(OC)c(OC)cc2CC1C (racemic) [Example 37, (±)-1-[4-(2-Azaspiro[3.3]hept-2-yl)phenyl]-7,8-dimethoxy-N,4-dimethyl-4,5-dihydro-3H-2,3-benzodiazepine-3-carboxamide]	6.35	6.77	6.38	6.38								
CNC(=O)N1N=C(c2ccc(N3CC4(CN(C)C4)C3)cc2)c2cc(OC)c(OC)cc2CC1C (racemic) [Example 38, (±)-7,8-Dimethoxy-N,4-dimethyl-1-[4-(6-methyl-2,6-diazaspiro[3.3]hept-2-yl)phenyl]-4,5-dihydro-3H-2,3-benzodiazepine-3-carboxamide]	6.85	7.00	6.77	6.40								
CNC(=O)N1N=C(c2ccc(N3C[C@@H]4C[C@H]3CN4)cc2)c2cc(OC)c(OC)cc2CC1C (relative stereo) [Example 19, [1S-(1R*,4R*)]-1-[4-(2,5-Diazabicyclo[2.2.1]hept-2-yl)phenyl]-7,8-dimethoxy-4,5-dihydro-N,4-dimethyl-3H-2,3-benzodiazepine-3-carboxamide]	7.00	6.85	6.77	6.82								
CNC(=O)N1N=C(c2ccc(F)c(N3C[C@@H]4C[C@H]3CN4)c2)c2cc(OC)c(OC)cc2CC1C (relative stereo) [Example 20, [1S-(1R*,4R*)]-1-[3-(2,5-diazabicyclo[2.2.1]hept-2-yl)-4-fluorophenyl]-7,8-dimethoxy-4,5-dihydro-N,4-dimethyl-3H-2,3-benzodiazepine-3-carboxamide]	6.11	6.39	5.97	5.84								
CNC(=O)N1N=C(c2ccc(N3C[C@@H]4C[C@H]3CN4C)cc2)c2cc(OC)c(OC)cc2CC1C (relative stereo) [Example 40, [1S-(1R*,4R*)]-7,8-Dimethoxy-N,4-dimethyl-1-[4-(5-methyl-2,5-diazabicyclo[2.2.1]hept-2-yl)phenyl]-4,5-dihydro-3H-2,3-benzodiazepine-3-carboxamide]	6.62	6.74	6.41	6.35								
CNC(=O)N1N=C(c2ccc(N3C[C@@H]4C[C@H]3CN4C)cc2)c2cc(OC)c(OC)cc2C[C@H]1C (relative stereo) [Example 40.1, [1S-[1R*,2(S*),4R*]]-7,8-Dimethoxy-N,4-dimethyl-1-[4-(5-methyl-2,5-diazabicyclo[2.2.1]hept-2-yl)phenyl]-4,5-dihydro-3H-2,3-benzodiazepine-3-carboxamide]		7.15			7.00	6.70	6.68					
CNC(=O)N1N=C(c2ccc(F)c(N3C[C@@H]4C[C@H]3CN4C)c2)c2cc(OC)c(OC)cc2CC1C (relative stereo) [Example 41, [1S-(1R*,4R*)]-1-[4-fluoro-3-(5-methyl-2,5-diazabicyclo[2.2.1]hept-2-yl)phenyl]-7,8-dimethoxy-4,5-dihydro-N,4-dimethyl-3H-2,3-benzodiazepine-3-carboxamide]	6.16	6.37	5.94	5.83								
CNC(=O)N1N=C(c2ccc(N3CC4(CCS4(=O)=O)C3)cc2)c2cc(OC)c(OC)cc2C[C@@H]1C [Example 3.1, (4S)-1-[4-(1,1-Dioxido-1-thia-6-azaspiro[3.3]hept-6-yl)phenyl]-7,8-dimethoxy-N,4-dimethyl-4,5-dihydro-3H-2,3-benzodiazepine-3-carboxamide]	7.40	7.70	7.15	7.40				7.40	7.10	7.30	6.55	7.70
CNC(=O)N1N=C(c2ccc(N3CC4(CN(C(=O)OC(C)(C)C)C4)C3)cc2)c2cc(OC)c(OC)cc2C[C@@H]1C [Example 8.1, tert-butyl 6-{4-[(4S)-7,8-dimethoxy-4-methyl-3-(methylcarbamoyl)-4,5-dihydro-3H-2,3-benzodiazepine-1-yl)phenyl}-2,6-diazaspiro[3.3]heptane-2-carboxylate]	7.00	7.22	6.74	6.89								
CNC(=O)N1N=C(c2ccc(N3CC4(CCS4(=O)=O)C3)cc2)c2cc(-n3nc(C)cc3C)ccc2C[C@H]1C [Example 17.1, (4R)-8-(3,5-Dimethyl-1H-pyrazol-1-yl)-1-[4-(1,1-dioxido-1-thia-6-azaspiro[3.3]hept-6-yl)phenyl]-N,4-dimethyl-4,5-dihydro-3H-2,3-benzodiazepine-3-carboxamide]	5.36	5.83	5.17	5.25								
CNC(=O)N1N=C(c2ccc(N3CC4(CCS4(=O)=O)C3)cc2)c2cc(-n3nc(C)cc3C)ccc2C[C@@H]1C [Example 17.2, (4S)-8-(3,5-Dimethyl-1H-pyrazol-1-yl)-1-[4-(1,1-dioxido-1-thia-6-azaspiro[3.3]hept-6-yl)phenyl]-N,4-dimethyl-4,5-dihydro-3H-2,3-benzodiazepine-3-carboxamide]	7.22	8.00	7.00	7.10								
CNC(=O)N1N=C(c2ccc(N3CC4(CCS4(=O)=O)C3)cc2)c2cc(OC(F)(F)F)ccc2C[C@@H]1C [Example 18.2, (4S)-1-[4-(1,1-dioxido-1-thia-6-azaspiro[3.3]hept-6-yl)phenyl]-N,4-dimethyl-8-(trifluoromethoxy)-4,5-dihydro-3H-2,3-benzodiazepine-3-carboxamide]	7.52	8.00	7.52	7.52								
